According to paper PMC11224359, “Stable peptide-assembled nanozyme mimicking dual antifungal actions” (Nature Communications, 2024):

Experiment: Peptide self-assembly morphology by TEM
Type: physicochemical
Procedure: Powders of each of the peptides were dissolved in 1.5 mM Ni(Ac)2 solution to a certain concentration range (e.g. 0.0–1.5 mM) and sonicated for a period of time, and were then allowed to cool gradually to 25 °C overnight. Aged samples could be left at room temperature for more than 90 days.
TEM images were recorded using a JEM1200EX (JEOL) (Japan) operating at 100 kV dropped on a double copper net. Typically, 1.5 mM samples are diluted 10-fold and stained with 3% uranyl acetate for viewing. For AFM, liquid Ni-IH-7 ([…]) was dropped on a mica sheet and observed by Bruker Dension Icon (Germany). The AMFM data were fitted using the Analyze panel module in Igor Pro software to obtain a modulus curve, yielding the average Young’s modulus. Simultaneously, we utilized the Hertz model force curve fitting results to validate the reliability of the Young’s modulus. Cryo-EM and two-dimensional classification data of Ni-IH-7 were collected by Talos Arctica 200 kV FEG (USA). AMFM was tested using Cypher S (USA) in the presence of AC160TS-R3 (probe). Samples were diluted 50 times and dried on mica flakes. KPFM was tested using Cypher S (USA) and obtain the Contact potential difference. The standard highly oriented pyrolytic graphite was 675 mV. HAADF-STEM was obtained by JEM ARM 200 F (accelerating voltage: 200 kV) (JEOL, Japan).

Substance: ICICICI [heptapeptide ICICICI]
- assembly into nanostructure: could not form typical nanostructure
